Results as given in ChEMBL document CHEMBL6134848, “Deuteration Strategy-Inspired Design of Novel Diarylpyrimidine Derivatives as Potent Non-Nucleoside Reverse Transcriptase Inhibitors Featuring Improved Efficacy, Selectivity, and Druggability” (J Med Chem, 2025).

Tests used:
[1] = test system: Human immunodeficiency virus 1; assay: Antiviral activity against wild-type HIV-1 IIIB infected in human MT4 cells assessed as protection against virus-induced cytopathicity measured after 5 days post-infection by MTT assay; assay type: functional, organism-based; conditions: Human immunodeficiency virus 1, IIIB, MT4, 120 h
[2] = Cytotoxicity against human MT4 cells assessed as reduction in cell viability by MTT assay; assay type: toxicity, cell-based
[3] = Selectivity index, ratio of CC50 for cytotoxicity against human MT4 cells to EC50 for antiviral activity against wild-type HIV-1 IIIB infected in human MT4 cells; assay type: toxicity, cell-based; conditions: read-out: Ratio CC50/EC50
[4] = test system: Human immunodeficiency virus 1; assay: Antiviral activity against drug-resistant HIV-1 harboring RT L100I mutant infected in human MT4 cells assessed as protection against virus-induced cytopathicity measured after 5 days post-infection by MTT assay; assay type: functional, organism-based; conditions: Human immunodeficiency virus 1, MT4, 120 h
[5] = test system: Human immunodeficiency virus 1; assay: Antiviral activity against drug-resistant HIV-1 harboring RT K103N mutant infected in human MT4 cells assessed as protection against virus-induced cytopathicity measured after 5 days post-infection by MTT assay; assay type: functional, organism-based; conditions: Human immunodeficiency virus 1, MT4, 120 h
[6] = test system: Human immunodeficiency virus 1; assay: Antiviral activity against drug-resistant HIV-1 harboring RT Y181C mutant infected in human MT4 cells assessed as protection against virus-induced cytopathicity measured after 5 days post-infection by MTT assay; assay type: functional, organism-based; conditions: Human immunodeficiency virus 1, MT4, 120 h
[7] = test system: Human immunodeficiency virus 1; assay: Antiviral activity against drug-resistant HIV-1 harboring RT Y188L mutant infected in human MT4 cells assessed as protection against virus-induced cytopathicity measured after 5 days post-infection by MTT assay; assay type: functional, organism-based; conditions: Human immunodeficiency virus 1, MT4, 120 h
[8] = test system: Human immunodeficiency virus 1; assay: Antiviral activity against drug-resistant HIV-1 harboring RT E138K mutant infected in human MT4 cells assessed as protection against virus-induced cytopathicity measured after 5 days post-infection by MTT assay; assay type: functional, organism-based; conditions: Human immunodeficiency virus 1, MT4, 120 h
[9] = test system: Human immunodeficiency virus 1; assay: Antiviral activity against drug-resistant HIV-1 harboring RT F227L/V106A mutant infected in human MT4 cells assessed as protection against virus-induced cytopathicity measured after 5 days post-infection by MTT assay; assay type: functional, organism-based; conditions: Human immunodeficiency virus 1, MT4, 120 h
[10] = test system: Human immunodeficiency virus 1; assay: Antiviral activity against drug-resistant HIV-1 harboring RT RES056 mutant infected in human MT4 cells assessed as protection against virus-induced cytopathicity measured after 5 days post-infection by MTT assay; assay type: functional, organism-based; conditions: Human immunodeficiency virus 1, MT4, 120 h
[11] = molecular target: Human immunodeficiency virus type 1 reverse transcriptase (Human immunodeficiency virus 1, UniProt Q72547); assay: Inhibition of recombinant wild type HIV-1 reverse transcriptase incubated for 40 mins in presence of poly(rA) template/oligo(dT)16 primer by Pico-Green dye based analysis
[12] = Metabolic stability in human liver microsomes assessed as half life at 1 uM measured up to 45 mins by LC/MS/MS analysis; assay type: ADME, Microsome; conditions: liver microsomes
[13] = Stability in human plasma assessed as compound remaining at 1 uM measured immediately by LC-MS/MS analysis; assay type: ADME, cell-free; conditions: read-out: Stability
[14] = Stability in human plasma assessed as compound remaining at 1 uM measured after 3 hrs by LC-MS/MS analysis; assay type: ADME, cell-free; conditions: read-out: Stability

| remaining at 0 h, 1 µM [13] | remaining at 3 h, 1 µM [14] | Structure (SMILES) | EC50 [1] | CC50 [2] | selectivity ratio [3] | EC50 [4] | EC50 [5] | EC50 [6] | EC50 [7] | EC50 [8] | EC50 [9] | EC50 [10] | IC50 [11] | half-life at 1 µM [12] |
| --- | --- | --- | --- | --- | --- | --- | --- | --- | --- | --- | --- | --- | --- | --- |
|  |  | [2H]C([2H])([2H])c1cc(C#N)cc(C([2H])([2H])[2H])c1Oc1nc(NC2CCN(Cc3ccc(S(N)(=O)=O)cc3)CC2)nc2sccc12 | 6.53 nM | > 225 µM | > 34500 | 6.44 nM | 4.28 nM | 11.2 nM | 10.4 nM | 19.5 nM | 8.79 nM | 141 nM | 160 nM |  |
|  |  | [2H]C([2H])([2H])c1cc(-c2ccc(C#N)cc2)cc(C([2H])([2H])[2H])c1Nc1ccnc(Nc2ccc(C#N)cc2)n1 | 1.83 nM | 5.98 µM | 3260 | 2.72 nM | 2.9 nM | 7.57 nM | 55.1 nM | 8.93 nM | 697 nM | 68.8 nM | 380 nM | 16.7 min |
|  |  | [2H]C([2H])([2H])c1cc(C#N)cc(C([2H])([2H])[2H])c1Oc1nc(NC2CCN(Cc3ccc(S(N)(=O)=O)cc3)CC2)nc2scnc12 | 2.16 nM | 17.9 µM | 8290 | 10.8 nM | 2.2 nM | 8.05 nM | 46 nM | 10.3 nM | 46.4 nM | 86.4 nM | 190 nM |  |
|  |  | [2H]C([2H])([2H])c1cc(C#N)cc(C)c1Oc1nc(NC2CCN(Cc3ccc(C(N)=O)cc3)CC2)nc2scnc12 | 2.03 nM | 22 µM | 10800 | 13.3 nM | 4.31 nM | 10.4 nM | 52.9 nM | 10.4 nM | 103 nM | 143 nM | 170 nM |  |
| 100% | 33.3% | CC[C@H](C)C(=O)O[C@H]1C[C@@H](C)C=C2C=C[C@H](C)[C@H](CC[C@@H]3C[C@@H](O)CC(=O)O3)[C@H]21 [LOVASTATIN] |  |  |  |  |  |  |  |  |  |  |  |  |
|  |  | [2H]C([2H])([2H])c1cc(C#N)cc(C([2H])([2H])[2H])c1Oc1nc(NC2CCN(Cc3ccc(C(N)=O)cc3)CC2)nc2scnc12 | 2.36 nM | 21.5 µM | 9130 | 12.8 nM | 2.79 nM | 11.6 nM | 52.1 nM | 11.3 nM | 161 nM | 166 nM | 160 nM |  |
|  |  | [2H]C([2H])([2H])c1cc(C#N)cc(C([2H])([2H])[2H])c1Oc1nc(NC2CCN(Cc3ccc(C(N)=O)cc3)CC2)nc2ccsc12 | 5.11 nM | > 241 µM | > 47200 | 44.3 nM | 6.75 nM | 46.8 nM | 57.6 nM | 59.8 nM | 78.2 nM | 1740 nM | 140 nM |  |
|  |  | [2H]C([2H])([2H])c1cc(C#N)cc(C([2H])([2H])[2H])c1Oc1nc(NC2CCN(Cc3ccc(S(N)(=O)=O)cc3)CC2)nc2ccccc12 | 5.47 nM | 24.3 µM | 4440 | 16.8 nM | 8.7 nM | 50.7 nM | 150 nM | 37.4 nM | 59.8 nM | 276 nM | 230 nM |  |
|  |  | Cc1ccnc2c1NC(=O)c1cccnc1N2C1CC1 [NEVIRAPINE] | 253 nM | > 15 µM |  | 1270 nM | 4710 nM |  | > 15000 nM | 237 nM | 7320 nM | > 15000 nM |  |  |
|  |  | O=C1Nc2ccc(Cl)cc2[C@@](C#CC2CC2)(C(F)(F)F)O1 [EFAVIRENZ] |  | > 6.34 µM |  | 41.8 nM | 99.2 nM |  |  | 8.32 nM | 203 nM |  |  |  |
|  |  | [2H]C([2H])([2H])c1cc(/C=C/C#N)cc(C)c1Nc1ccnc(Nc2ccc(C#N)cc2)n1 | 1.17 nM | 6.56 µM |  | 2.3 nM | 1.96 nM | 2.71 nM | 72.6 nM | 4.6 nM | 69.8 nM | 12.9 nM | 30 nM | 19.4 min |
|  |  | [2H]C([2H])([2H])c1cc(/C=C/C#N)cc(C([2H])([2H])[2H])c1Nc1ccnc(Nc2ccc(C#N)cc2)n1 | 1.41 nM | 6.59 µM |  | 2.42 nM | 1.81 nM | 2.75 nM |  | 5.84 nM | 76.2 nM | 13.2 nM | 20 nM | 22.8 min |
